Data reported in patent US4414224A (SmithKline Beckman Corporation, priority 1982, dated 1983).

Tests used:
[1] = test system: normal anesthetized dog; test: Intravenous infusion in the normal anesthetized dog (MAP, RBF, RVR, HR); type: in vivo; details: i.v. infusion
[2] = test system: alpha1; test: Isolated perfused rabbit ear artery preparation, vasoconstriction indicative of alpha1 activity; type: cell-based
From the text: The isolated perfused rabbit ear artery preparation described by J. P. Hiebel and R. G. Pendleton, Arch.

[3] = 0.3 μg/kg/min (base), A in 10% dimethylsulfoxide in 0.9% saline
[4] = 3 μg/kg/min (base), dopamine run in each test for comparison

Structure (SMILES): Br.CCCN(CCC)CCc1ccc(O)c2c1CC(=O)N2 [A, 4-(2-di-n-propylaminoethyl)-7-hydroxy-2(3H)-indolone hydrobromide]
- % Change HR (heart rate) [1, 3]: +3.6%
- % Change MAP (mean arterial blood pressure) [1, 3]: -5.1%
- % Change RBF (mean renal blood flow) [1, 3]: +4.6%
- % Change RVR (renal vascular resistance) [1, 3]: -0.5%
- % Change HR (heart rate) [1, 4]: -11.2%
- % Change MAP (mean arterial blood pressure) [1, 4]: -24.7%
- % Change RBF (mean renal blood flow) [1, 4]: +24.7%
- % Change RVR (renal vascular resistance) [1, 4]: -39.1%
- % Change HR (heart rate) ([1]; 30 μg/kg/min (base)): -6.9%
- % Change MAP (mean arterial blood pressure) ([1]; 30 μg/kg/min (base)): +28.4%
- % Change RBF (mean renal blood flow) ([1]; 30 μg/kg/min (base)): -19.4%
- % Change RVR (renal vascular resistance) ([1]; 30 μg/kg/min (base)): +59.2%

Structure (SMILES): COc1ccc(CCN)c2c1NC(=O)C2.Cl [D, 4-(2-aminoethyl)-7-methoxy-2(3H)-indolone hydrochloride]
- % Change HR (heart rate) [1, 4]: -1.5%
- % Change MAP (mean arterial blood pressure) [1, 4]: -0.7%
- % Change RBF (mean renal blood flow) [1, 4]: +6.7%
- % Change RVR (renal vascular resistance) [1, 4]: -7.0%
- % Change HR (heart rate) ([1]; 30 μg/kg/min (base)): -2.8%
- % Change MAP (mean arterial blood pressure) ([1]; 30 μg/kg/min (base)): -2.3%
- % Change RBF (mean renal blood flow) ([1]; 30 μg/kg/min (base)): +7.5%
- % Change RVR (renal vascular resistance) ([1]; 30 μg/kg/min (base)): -9.2%
- % Change HR (heart rate) ([1]; 300 μg/kg/min (base)): -1.6%
- % Change MAP (mean arterial blood pressure) ([1]; 300 μg/kg/min (base)): -9.8%
- % Change RBF (mean renal blood flow) ([1]; 300 μg/kg/min (base)): +2.1%
- % Change RVR (renal vascular resistance) ([1]; 300 μg/kg/min (base)): -9.4%

Structure (SMILES): CCCN(CCC)CCc1ccc(OC)c2c1CC(=O)N2.Cl [B, 4-(2-di-n-propylaminoethyl)-7-methoxy-2(3H)-indolone hydrochloride]
- % Change HR (heart rate) [1, 4]: -4.5%
- % Change MAP (mean arterial blood pressure) [1, 4]: -3.6%
- % Change RBF (mean renal blood flow) [1, 4]: -11.6%
- % Change RVR (renal vascular resistance) [1, 4]: +8.9%
- % Change HR (heart rate) ([1]; 30 μg/kg/min (base)): -8.3%
- % Change MAP (mean arterial blood pressure) ([1]; 30 μg/kg/min (base)): -7.8%
- % Change RBF (mean renal blood flow) ([1]; 30 μg/kg/min (base)): +2.8%
- % Change RVR (renal vascular resistance) ([1]; 30 μg/kg/min (base)): -9.5%
- % Change HR (heart rate) ([1]; 300 μg/kg/min (base)): -7.8%
- % Change MAP (mean arterial blood pressure) ([1]; 300 μg/kg/min (base)): +0.1%
- % Change RBF (mean renal blood flow) ([1]; 300 μg/kg/min (base)): +0.7%
- % Change RVR (renal vascular resistance) ([1]; 300 μg/kg/min (base)): +1.6%

Structure (SMILES): Br.NCCc1ccc(O)c2c1CC(=O)N2 [C, 4-(2-aminoethyl)-7-hydroxy-2(3H)-indolone hydrobromide]
- % Change HR (heart rate) [1, 4]: -2.9%
- % Change MAP (mean arterial blood pressure) [1, 4]: -10.6%
- % Change RBF (mean renal blood flow) [1, 4]: -12.7%
- % Change RVR (renal vascular resistance) [1, 4]: +4.1%
- % Change HR (heart rate) ([1]; 30 μg/kg/min (base)): -2.9%
- % Change MAP (mean arterial blood pressure) ([1]; 30 μg/kg/min (base)): -16.1%
- % Change RBF (mean renal blood flow) ([1]; 30 μg/kg/min (base)): -12.3%
- % Change RVR (renal vascular resistance) ([1]; 30 μg/kg/min (base)): -2.7%
- % Change HR (heart rate) ([1]; 300 μg/kg/min (base)): -15.8%
- % Change MAP (mean arterial blood pressure) ([1]; 300 μg/kg/min (base)): +62.6%
- % Change RBF (mean renal blood flow) ([1]; 300 μg/kg/min (base)): -32.7%
- % Change RVR (renal vascular resistance) ([1]; 300 μg/kg/min (base)): +167.0%

Structure (SMILES): CCCN(CCC)CCc1ccc(O)c2c1CC(=O)N2 [4-(2-di-n-propylaminoethyl)-7-hydroxy-2(3H)-indolone]
- concentration at which vasoconstriction indicative of alpha1 activity was observed [2]: about 1000 nM
